The source of these data is patent US10414763B2 (CANCER RESEARCH TECHNOLOGY LIMITED, priority 2014, dated 2019).

The target of this assay is T1, full-length human PKCι (Homo sapiens, UniProt P41743).
T1 construct: Recombinant, full-length human PKCι expressed in Sf21 insect cells is also commercially available; purchased EMD Millipore; host or cells: Sf21 insect cells (baculovirus)
T1 sequence (P41743 1-596): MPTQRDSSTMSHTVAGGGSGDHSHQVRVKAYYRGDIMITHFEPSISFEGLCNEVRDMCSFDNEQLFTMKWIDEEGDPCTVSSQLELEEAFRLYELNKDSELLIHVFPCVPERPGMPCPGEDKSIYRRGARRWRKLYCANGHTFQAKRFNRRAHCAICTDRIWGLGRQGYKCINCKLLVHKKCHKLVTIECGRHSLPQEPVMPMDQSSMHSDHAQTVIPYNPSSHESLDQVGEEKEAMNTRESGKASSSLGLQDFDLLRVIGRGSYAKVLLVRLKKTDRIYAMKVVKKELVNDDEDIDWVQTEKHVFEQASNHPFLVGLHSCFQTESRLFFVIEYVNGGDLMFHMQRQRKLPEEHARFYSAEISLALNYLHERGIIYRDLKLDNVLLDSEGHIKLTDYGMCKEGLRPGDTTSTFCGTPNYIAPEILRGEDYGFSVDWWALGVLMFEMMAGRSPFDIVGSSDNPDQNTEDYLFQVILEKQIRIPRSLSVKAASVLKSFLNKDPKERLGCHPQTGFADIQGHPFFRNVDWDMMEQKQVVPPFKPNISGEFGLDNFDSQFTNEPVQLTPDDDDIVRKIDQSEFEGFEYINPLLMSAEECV
Briefly: PKCι IC50 IMAP fluorescence polarisation assay, full-length enzyme, 150 μM ATP. To be noted: read-out: IC50 in IMAP assay against full length PKCi at 150 μM ATP. Format: biochemical. Summed up: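 IMAP fluorescence polarisation kinase assay: 15 pM baculovirus-expressed human PKCiota with 100 nM FAM-pseudosubstrate peptide and 150 μM ATP, 1 h at 25 °C. IMAP detection reagent then 2 h at 25 °C before FP measurement. Inhibition referenced to no-compound and no-enzyme controls for IC50 fitting.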

With `CC1(C)CNCCC1Nc1nc(-c2ccnc(Nc3c(F)cccc3F)c2)nc2cncc(C3CCC3)c12` (centres unmarked) [Example 93, {5-Cyclobutyl-2-[2-(2,6-difluoro-phenylamino)-pyridin-4-yl]-pyrido[3,4-d]pyrimidin-4-yl}-(3,3-dimethyl-piperidin-4-yl)-amine], the IC50 is below 100 nM.
As for `CC1(C)CNCCC1Nc1nc(-c2ccnc(Nc3cc4ccccn4n3)c2)nc2cncc(C3CC3)c12` (centres unmarked) [Example 35, {5-Cyclopropyl-2-[2-(pyrazolo[1,5-a]pyridin-2-ylamino)-pyridin-4-yl]-pyrido[3,4-d]pyrimidin-4-yl}-(3,3-dimethyl-piperidin-4-yl)-amine], the figure is below 100 nM; as for `CN(c1nc(-c2ccnc3[nH]c4ccccc4c23)nc2cncc(C(F)(F)F)c12)C1CC(N)C(O)C1` (centres unmarked) [Example 220, 2-Amino-4-{methyl-[2-(9H-pyrido[2,3-b]indol-4-yl)-5-trifluoromethyl-pyrido[3,4-d]pyrimidin-4-yl]-amino}-cyclopentanol], below 100 nM.
To `Cc1cn2c(n1)[nH]c1nccc(-c3nc(N4CCNCC4)c4c(C5CCC5)cncc4n3)c12` [Example 3, 4-(5-Cyclobutyl-4-piperazin-1-yl-pyrido[3,4-d]pyrimidin-2-yl)-2-methyl-8H-1,3a,7,8-tetraaza-cyclopent[a]indene] belongs 100 to 1000 nM.
Consider `FC(F)(F)c1cc2c(-c3nc(N4CCC[C@H]5CNC[C@H]54)c4c(C5CC5)cncc4n3)ccnc2[nH]1` (racemic) [Example 8, (±)-5-Cyclopropyl-4-(4,7-cis)-octahydro-pyrrolo[3,4-b]pvridin-1-yl-2-(2-trifluoromethyl-1H-pyrrolo[2,3-b]pyridin-4-yl)-pyrido[3,4-d]pyrimidine], for which the IC50 was below 100 nM.
As for `OC1CNCCCC1Nc1nc(-c2ccnc3[nH]c4ccccc4c23)nc2cncc(C3CCC3)c12` (centres unmarked) [Example 73, 4-[5-Cyclobutyl-2-(9H-pyrido[2,3-b]indol-4-yl)-pyrido[3,4-d]pyrimidin-4-ylamino]-azepan-3-ol], the figure is below 100 nM.
As for `CN(c1nc(-c2ccnc3[nH]c(Sc4ccccc4)cc23)nc2cncc(C3CCC3)c12)C1CCNCC1` [Example 28, [5-Cyclobutyl-2-(2-phenylsulfanyl-1H-pyrrolo[2,3-b]pyridin-4-yl)-pyrido[3,4-d]pyrimidin-4-yl]-methyl-piperidin-4-yl-amine], the figure is below 100 nM.
As for `FC(F)(F)c1cncc2nc(-c3ccnc4[nH]c5ccccc5c34)nc(N3CCNCC3)c12` [Example 215, 4-(4-Piperazin-1-yl-5-trifluoromethyl-pyrido[3,4-d]pyrimidin-2-yl)-9H-pyrido[2,3-b]indole], the figure is 100 to 1000 nM; as for `FC(F)(F)c1cncc2nc(-c3ccnc4[nH]c5ccccc5c34)nc(N3CC[C@@H]4CNC[C@@H]43)c12` [Example 216, 4-((3R,6R)-4-Hexahydro-pyrrolo[3,4-b]pyrrol-1-yl-5-trifluoromethyl-pyrido[3,4-d]pyrimidin-2-yl)-9H-pyrido[2,3-b]indole], 100 to 1000 nM; as for `CC1(C)CNCCC1Nc1nc(-c2ccnc(Nc3ncc(F)cc3F)c2)nc2cncc(C3CCC3)c12` (centres unmarked) [Example 68, {5-Cyclobutyl-2-[2-(3,5-difluoro-pyridin-2-ylamino)-pyridin-4-yl]-pyrido[3,4-d]pyrimidin-4-yl}-(3,3-dimethyl-piperidin-4-yl)-amine], below 100 nM.
For the compound `Cc1nc(Nc2cc(-c3nc(N[C@H]4CCNCC4(C)C)c4c(C5CCC5)cncc4n3)ccn2)ccc1C#N` [Example 272], the IC50 is below 100 nM.
As for `Cc1cc2c(-c3nc(N4CC[C@H]5NCC[C@H]54)c4c(C5CCC5)cncc4n3)ccnc2[nH]1` (racemic) [Example 84, (±)-5-Cyclobutyl-4-(3,6-cis)-hexahydro-pyrrolo[3,2-b]pyrrol-1-yl-2-(2-methyl-1H-pyrrolo[2,3-b]pyridin-4-yl)-pyrido[3,4-d]pyrimidine], the figure is below 100 nM.
With `C[C@@H]1CNCC[C@@H]1Nc1nc(-c2ccnc(Nc3nc4ccccn4n3)c2)nc2cncc(C3CCC3)c12` (racemic) [Example 276, {5-Cyclobutyl-2-[2-([1,2,4]triazolo[1,5-a]pyridin-2-ylamino)-pyridin-4-yl]-pyrido[3,4-d]pyrimidin-4-yl}-(rac-(3R,4S)-3-methyl-piperidin-4-yl)-amine], the IC50 is below 100 nM.
As for `Fc1cccnc1-c1cc2c(-c3nc(N4CC[C@H]5NCC[C@H]54)c4c(C5CC5)cncc4n3)ccnc2[nH]1` (racemic) [Example 56, (±)-5-Cyclopropyl-2-[2-(3-fluoro-pyridin-2-yl)-1H-pyrrolo[2,3-b]pyridin-4-yl]-4-(3,6- cis)-hexahydro-pyrrolo[3,2-b]pyrrol-1-yl-pyrido[3,4-d]pyrimidine], the figure is below 100 nM; as for `CN(c1nc(-c2ccnc3[nH]c(-c4csc(C(C)(C)C)n4)cc23)nc2cncc(C3CC3)c12)C1CCNCC1(C)C` (centres unmarked) [Example 32, {2-[2-(2-tert-Butyl-thiazol-4-yl)-1H-pyrrolo[2,3-b]pyridin-4-yl]-5-cyclopropyl-pyrido[3,4-d]pyrimidin-4-yl}-(3,3-dimethyl-piperidin-4-yl)-methyl-amine], below 100 nM; as for `CCSc1cc2c(-c3nc(N4CCNCC4)c4c(C5CCC5)cncc4n3)ccnc2[nH]1` [Example 133, 5-Cyclobutyl-2-(2-ethylsulfanyl-1H-pyrrolo[2,3-b]pyridin-4-yl)-4-piperazin-1-yl-pyrido[3,4-d]pyrimidine], below 100 nM.
For the compound `Cc1cc2c(-c3nc(NC4CCNCC4(C)C)c4c(C5CC5)cncc4n3)ccnc2[nH]1` (centres unmarked) [Example 100, [5-Cyclopropyl-2-(2-methyl-1H-pyrrolo[2,3-b]pyridin-4-yl)-pyrido[3,4-d]pyrimidin-4-yl]-(3,3-dimethyl-piperidin-4-yl)-amine], the IC50 is below 100 nM.
To `c1cncc(-c2cc3c(-c4nc(N5CCNCC5)c5c(C6CC6)cncc5n4)ccnc3[nH]2)c1` [Example 58, 5-Cyclopropyl-4-piperazin-1-yl-2-(2-pyridin-3-yl-1H-pyrrolo[2,3-b]pyridin-4-yl)-pyrido[3,4-d]pyrimidine] belongs below 100 nM.
As for `CC1(C)CNCC[C@@H]1Nc1nc(-c2ccnc(N[C@H](C(=O)O)c3ccccc3)c2)nc2cncc(C3CC3)c12` [Example 267, (2S)-2-[[4-[5-cyclopropyl-4-[[(4S)-3,3-dimethyl-4-piperidyl]amino]pyrido[3,4-d]pyrimidin-2-yl]-2-pyridyl]amino]-2-phenyl-acetic acid], the figure is 1000 to 10000 nM; as for `CC1(C)CNCC[C@@H]1Nc1nc(-c2ccnc(Nc3nc4ccccc4o3)c2)nc2cncc(C3CCC3)c12` [Example 274, {2-[2-(Benzoxazol-2-ylamino)-pyridin-4-yl]-5-cyclobutyl-pyrido[3,4-d]pyrimidin-4-yl}-((S)-3,3-dimethyl-piperidin-4-yl)-amine], below 100 nM.
As for `O[C@@H]1CNCC[C@H]1Nc1nc(-c2ccnc3[nH]c4ccccc4c23)nc2cncc(C(F)(F)F)c12` (racemic) [Example 350, rac-(3R,4R)-4-[2-(9H-Pyrido[2,3-b]indol-4-yl)-5-trifluoromethyl-pyrido[3,4-d]pyrimidin-4-ylamino]-piperidin-3-ol], the figure is below 100 nM.
For `NC[C@H]1CCN(c2nc(-c3ccnc4[nH]c5ccccc5c34)nc3cncc(C4CCC4)c23)C1` [Example 249, C-{(R)-1-[5-Cyclobutyl-2-(9H-pyrido[2,3-b]indol-4-yl)-pyrido[3,4-d]pyrimidin-4-yl]-pyrrolidin-3-yl}-methylamine], the IC50 is below 100 nM.
As to `O=C(NC1CCCCC1)c1cc2c(-c3nc(N4CCNCC4)c4c(C5CC5)cncc4n3)ccnc2[nH]1` [Example 62, 4-(5-Cyclopropyl-4-piperazin-1-yl-pyrido[3,4-d]pyrimidin-2-yl)-1H-pyrrolo[2,3-b]pyridine-2-carboxylic acid cyclohexylamide], the IC50 is below 100 nM.
To `C[C@@H]1CNCC[C@H]1Nc1nc(-c2ccnc(Nc3nc(F)ccc3F)c2)nc2cncc(C3CC3)c12` (single isomer, unassigned) [Example 335, 5-Cyclopropyl-2-[2-[(3,6-difluoro-2-pyridyl)amino]-4-pyridyl]-N-[(3R,4R)-3-methyl-4-piperidyl]pyrido[3,4-d]pyrimidin-4-amine or enantiomer] belongs below 100 nM; to `CC1(C)CNCC[C@@H]1Nc1nc(-c2ccnc(Nc3nc4ccccc4o3)c2)nc2cncc(C3CC3)c12` [Example 327, N-[4-[5-Cyclopropyl-4-[[(4S)-3,3-dimethyl-4-piperidyl]amino]pyrido[3,4-d]pyrimidin-2-yl]-2-pyridyl]-1,3-benzoxazol-2-amine], below 100 nM; to `O[C@@H]1CNCC[C@H]1Nc1nc(-c2ccnc(Nc3nc(F)cc(F)c3F)c2)nc2cncc(C3CC3)c12` (racemic) [Example 310, rac-(3R,4R)-4-{5-Cyclopropyl-2-[2-(3,4,6-trifluoro-pyridin-2-ylamino)-pyridin-4-yl]-pyrido[3,4-d]pyrimidin-4-ylamino}-piperidin-3-ol], below 100 nM.
